In US6653330B2, “Amide-type triazole compounds” (Sankyo Company, Limited, priority 2000, dated 2003):
In brackets after ≈: the same amount, converted by molar mass.

Assays:
[1] = test system: Candida albicans SANK 51486; experiment: In vitro antifungal activity (MIC), Candida albicans; assay type: cell-based; conditions: SANK51486, MIC = lowest concentration causing at least 80% growth inhibition (IC80), RPMI1640 pH 7.0, 35° C., trans isomers
Experimental: (§1) The antifungal activities of test compounds were assessed according to their minimum inhibitory concentrations (MICs) which were measured by the methods described below.
(§2) Liquid medium: RPMI1640 medium which was buffered to pH 7.0 (without an indicator) with 0.165M 3-(morpholino)propanesulfonic acid was used for Candida albicans and Aspergillus fumigatus. Yeast Nitrogen Base medium which was buffered to pH 7.0 with 0.165M 3-(morpholino)propanesulfonic acid was used for Cryptococcus neoformans.
(§3) Preparation of inoculation fungi solution: Each test fungi solution of Candida albicans and Cryptococcus neoformans was incubated on Sabouraud agar medium at 35° C. for 48 hours. About five colonies of the test fungi having 1 mm diameter were suspended in physiological saline and the transmittance of the suspension was adjusted to Macfarland 0.5 degree. A one thousand-fold diluted suspension of the resulting suspension was prepared by dilution with the liquid medium described above and was used for Candida albicans. A one hundred-fold diluted suspension of the resulting suspension was prepared by dilution with the liquid medium described above and was used for Cryptococcus neoformans. Aspergillus fumigatus was incubated on Potato dextrose agar at 35° C. for five days. Spores on the agar medium were collected with physiological saline containing 0.05% Tween 80 and the number of spores was adjusted to 2.5×10^7/ml using a blood cell counter. A one thousand-fold diluted suspension was prepared by dilution of the resulting spore suspension with the liquid medium described above and was used for Aspergillus fumigatus.
(§4) Preparation of test compound solution: Each test compound was dissolved in 100% dimethyl sulfoxide and serial two-fold dilutions of each compound were prepared with 100% dimethyl sulfoxide. The final concentration of dimethyl sulfoxide was adjusted to not greater than 1% by dilution with each liquid medium described above respectively.
(§5) Assessment method: Each diluted test compound (100 μl), the inoculation fungi solution (80 μl) and Alamar blue solution (20 μl) was sequentially added to each of wells of microtiter plate having 96 wells. The resulting mixture was incubated at 35° C. (30° C. for Aspergillus fumigatus). When the light absorbance at 570 nm of growth control exceeded 0.6, the MICs were determined. The MICs were defined as the lowest compound concentrations causing at least 80% growth inhibition (IC80) compared with the control to which the test compound was not added.

[2] = test system: Cryptococcus neoformans TIMM 1855; experiment: In vitro antifungal activity (MIC), Cryptococcus neoformans; assay type: cell-based; conditions: TIMM1855, MIC = lowest concentration causing at least 80% growth inhibition (IC80), Yeast Nitrogen Base pH 7.0, 35° C., trans isomers
Experimental: as §1, §2, §3, §4, §5

[3] = test system: Aspergillus fumigatus SANK 10569; experiment: In vitro antifungal activity (MIC), Aspergillus fumigatus; assay type: cell-based; conditions: SANK10569, MIC = lowest concentration causing at least 80% growth inhibition (IC80), RPMI1640 pH 7.0, 30° C., trans isomers
Experimental: as §1, §2, §3, §4, §5

Row | Structure (SMILES) | MIC [1] [µg/mL] | MIC [2] [µg/mL] | MIC [3] [µg/mL] | melting point [°C]
1 | C[C@@H](SC1COC(c2ccccc2)OC1)[C@](O)(Cn1cncn1)c1ccc(F)cc1F (some centres unmarked) [Comparative compound (A), reference compound] | 0.063 (≈ 0.141 µM) | 0.25 (≈ 0.559 µM) | 4 (≈ 8.94 µM) | –
2 | C[C@@H](S[C@H]1CO[C@H](c2ccc(C(=O)Nc3ccc(OCC(F)(F)C(F)F)cc3)cc2)OC1)[C@](O)(Cn1cncn1)c1ccc(F)cc1F [Example 1, 4-[trans-5-[[(1R,2R)-2-(2,4-Difluorophenyl)-2-hydroxy-1-methyl-3-(1H-1,2,4-triazol-1-yl)propyl]thio]-1,3-dioxan-2-yl]-4′-(2,2,3,3-tetrafluoropropoxy)benzanilide] | 0.016 (≈ 0.023 µM) | 0.063 (≈ 0.0904 µM) | 0.125 (≈ 0.179 µM) | 156
3 | C[C@@H](S[C@H]1CO[C@H](c2ccc3cc(C(=O)Nc4ccc(C#N)cc4)ccc3c2)OC1)[C@](O)(Cn1cncn1)c1ccc(F)cc1F [Example 3, 4′-Cyano-6-[trans-5-[[(1R,2R)-2-(2,4-difluorophenyl)-2-hydroxy-1-methyl-3-(1H-1,2,4-triazol-1-yl)propyl]thio]-1,3-dioxan-2-yl]-2-naphthoanilide] | ≤ 0.008 | 0.063 (≈ 0.0982 µM) | 0.063 (≈ 0.0982 µM) | 114
4 | C[C@@H](S[C@H]1CO[C@H](c2cccc(C(=O)Nc3ccc(Cl)cc3)c2)OC1)[C@](O)(Cn1cncn1)c1ccc(F)cc1F [Example 9, 4′-Chloro-3-[trans-5-[[(1R,2R)-2-(2,4-difluorophenyl)-2-hydroxy-1-methyl-3-(1H-1,2,4-triazol-1-yl)propyl]thio]-1,3-dioxan-2-yl]benzanilide] | ≤ 0.008 | 0.25 (≈ 0.416 µM) | 2 (≈ 3.33 µM) | 90
5 | C[C@@H](S[C@H]1CO[C@H](c2ccc(C(=O)Nc3ccc(O)cc3)cc2)OC1)[C@](O)(Cn1cncn1)c1ccc(F)cc1F [Example 23, 4-[trans-5-[[(1R,2R)-2-(2,4-Difluorophenyl)-2-hydroxy-1-methyl-3-(1H-1,2,4-triazol-1-yl)propyl]thio]-1,3-dioxan-2-yl]-4′-hydroxybenzanilide] | 0.016 (≈ 0.0275 µM) | 0.25 (≈ 0.429 µM) | 0.5 (≈ 0.858 µM) | 254
6 | C[C@@H](S[C@H]1CO[C@H](c2ccc(C(=O)NCc3ccc(C#N)cc3)cc2)OC1)[C@](O)(Cn1cncn1)c1ccc(F)cc1F [Example 26, N-(4-Cyanobenzyl)-4-[trans-5-[[(1R,2R)-2-(2,4-difluorophenyl)-2-hydroxy-1-methyl-3-(1H-1,2,4-triazol-1-yl)propyl]thio]-1,3-dioxan-2-yl]benzamide] | 0.016 (≈ 0.0264 µM) | 0.25 (≈ 0.413 µM) | 0.25 (≈ 0.413 µM) | 188
